In a melting point compilation (Tetko et al.; mined from patent text by program, amines drawn as free bases though some values may be those of a salt):

| Compound | melting point |
| --- | --- |
| COc1ccc(-c2nc(C)cc(OCCN3CCN(C(c4ccccc4)c4ccccc4)CC3)n2)cc1 | 132 to 133 °C |
| CN(C)C(=N)Nc1ccc(F)cc1-c1ccccc1 | 160 to 161 °C |
| CCCCCn1c2ccc(C(=O)NN3CCCCC3)cc2c2ccc(OC)cc21 | 178 to 179 °C |
| CCCc1ccc(OCc2ccc(OCc3nc(-c4ccccc4)oc3C)cc2)cc1OCC(=O)OC | 100 to 101 °C |
| O=C1c2cc(Cl)ccc2-n2cncc2[C@@H]2CCCN12 | 216 to 217 °C |
| CNC(=O)Cn1nnnc1S | 167 to 168 °C |
| CCN(C)C(N)=C(C#N)C#N | 140 to 141 °C |
| COc1ccc(-c2ccc(C=C3SC(=O)NC3=O)cc2)cc1C12CC3CC(CC(C3)C1)C2 | 304 to 306 °C |
| FC(F)(F)CNc1nc(Cl)nc(Cl)n1 | 115 to 118 °C |
| CCCCN1Cc2[nH]c3ccccc3c2C1 | 151 to 152 °C |
| CC(C)n1c(=O)n(C(=O)NCC2CCN(CC3(C(=O)O)CCCCC3)CC2)c2ccccc21 | 151 °C |
| CN(C)CCc1cccc(OCCCN2C(=O)c3ccccc3C2=O)c1 | 59 to 60 °C |
| CN(C)CCNC(=O)c1ccc(S(N)(=O)=O)cc1 | 150 to 151 °C |
| CC(=O)Oc1ccc(C)cc1[C@H](CCN(C(C)C)C(C)C)c1ccccc1 | 126 to 130 °C |
| FC(F)(F)c1cccc(-c2ccnc3c(Br)cnn23)c1 | 138 to 140 °C |
| CC(C)=NOCc1nc2c(N)nc3ccccc3c2s1 | 152 to 153 °C |
| O=C1c2ccccc2C(=O)N1OCC1OC(n2ccc(=O)[nH]c2=O)CC1O (stereo not drawn) | 241 to 242 °C |
| O=C(c1ccc(F)c(Cc2ccc(=O)[nH]n2)c1)c1c(Cl)cc(Cl)cc1Cl | 185 °C |
| COc1ccc(C2CC(=O)N(c3ccccc3)C2)cc1OC (stereo not drawn) | 104 °C |
| CC(C)N(C(=O)CCCCCC(=O)O)c1ccccc1 | 62 to 63 °C |
| O=C(Cn1c2c(c(=O)n3nc(-c4ccc(Cl)cc4)cc13)CN(C1CCCCC1)C2=O)c1ccccc1 | 237 to 239 °C |
| CCCc1nc(I)c(CO)[nH]1 | 169 to 170 °C |
| CN1CCOc2cc(S(=O)(=O)n3c(COC(C)(C)C(=O)O)cc4cc(Cl)ccc43)ccc21 | 148 to 150 °C |
| CC(C)(C)OC(=O)NNc1ccc(N2C(=O)C=CC2=O)cn1 | 182 to 184 °C |
| CCOc1nn(C(=S)Oc2ccccc2)c(=O)n1C | 123 °C |
| CC(C)Cc1ccc(N)cc1C#N | 68 °C |
| Clc1ccc(Cc2ccc(-c3ccccc3)cc2)cc1 | 96 °C |

| Compound | melting point |
| --- | --- |
| CCOC(=O)Cc1ccccc1Oc1ccc(COc2cc(CC)nc3c2CCCC3)cc1 | 89 to 90 °C |
| CS(=O)(=O)c1ccc(-c2cnn(-c3ccc(F)cc3)c(=O)c2Cc2cccc(F)c2)cc1 | 176 to 178 °C |
| Cn1nc(CO)cc1OCCCN1CCN(c2cccc3sccc23)CC1 | 124 to 126 °C |
| NS(=O)(=O)c1ccc(NC(=O)Nc2c(F)c(F)c(F)c(F)c2F)cc1 | 251 to 253 °C |
| Cc1ccc(/C=C/c2nc(COc3ccc(CCCCn4ccnn4)cc3)co2)cc1 | 154 to 155 °C |
| O=C(c1ccc(Cl)cc1)c1ccc(CBr)cc1Cl | 88 to 90 °C |
| CN1Cc2c(Br)cc3c(c2C1)NC(=O)C3=O | > 300 °C |
| CCc1ncnc(Cl)c1I | 56 to 57 °C |
| CCOC(=O)C1CCc2c(C)c(O)c(C)c(C)c2O1 (stereo not drawn) | 108 to 109 °C |
| Cc1cccc(C(=O)c2ccc(O)cc2)c1C | 155 to 158 °C |
| CC[C@@H](NC(=O)N1CC(=O)NC[C@H](Cc2cc(Cl)ccc2OC)C1=O)c1ccc(C(=O)O)c(N)c1 | 139 to 140 °C |
| Nc1ncc(C2OC(CO)C(O)C2O)c(Cl)n1 (stereo not drawn) | 195 to 197 °C |
| CC(C)(C)c1cc(C=Nn2ccnc2N2CCOCC2)cc(C(C)(C)C)c1O | 185 to 187 °C |
| CC(C)c1cc(S(N)(=O)=O)c(C(C)C)cc1C(=O)O | 225 to 231 °C |
| CC1c2cccn2-c2ccc(F)cc2N1S(=O)(=O)c1ccc(O)cc1 (stereo not drawn) | 180 to 182 °C |
| CNC(=O)c1c(O)c(=O)cc(C)n1C | > 250 °C |
| COc1ccc2c(c1)CCC1=C2CCC2(C(C)C)C(=O)CC=C12 (stereo not drawn) | 112 to 113 °C |
| COc1ccccc1-n1c(-c2cc(-c3ccc(Cl)cc3)c(N3CCOCC3)s2)nc2ccccc2c1=O | 216 to 217 °C |
| CC1(C)OCc2cc(Cl)cc(C(C)(O)c3cn(C(c4ccccc4)(c4ccccc4)c4ccccc4)cn3)c2O1 (stereo not drawn) | 182 to 184 °C |
| CC(Cc1c[nH]c2ccccc12)NC(=O)Oc1ccccc1 (stereo not drawn) | 89 to 92 °C |
| O=C(CBr)c1coc2ccccc2c1=O | 140 to 145 °C |
| COC(=O)CC(C)C1CCC2C3CC=C4CC(OC(C)=O)CC(OC(C)=O)C4(C)C3CCC12C (stereo not drawn) | 123 to 124 °C |
| COC(=O)c1ccccc1C1(c2ccccc2)OCC(CCl)O1 (stereo not drawn) | 90 to 91 °C |
| O=C(CC1CC1)N[C@H]1CC[C@H](CCN2CCN(c3nccc4c3OCC4)CC2)CC1 | 198 °C |
| Cc1ccc(CNc2nc(Nc3cccc(N4CCOCC4)c3)nc(OCC(F)(F)F)n2)o1 | 130 to 134 °C |
| N#CNC(=O)[C@H](Cc1ccccc1)NC(=O)[C@@H]1CCC(=O)N1 | 163 to 165 °C |
